# Experimental data published in patent publication US11472846B2, “Compositions and methods for treating diseases by inhibiting exosome release” (priority 2016, dated 2022).
# Like-named read-outs stand apart in the source and are kept apart here.
# Experiments:
# Format in all cases: cell-based, human
# [1] = tested on: MCF-7 cells; experiment: TUNEL apoptosis assay, MCF-7; settings: 48 hours, MKT-077 500 nM/mL, DMA 300 μM/mL, Omeprazole 200 μM/mL, paclitaxel 1.6 uM/mL, cisplatin 2 mg/mL
# Method: (§1) 7-8. Apoptosis assay by flow cytometry. For assessment of apoptosis, MCF-7 and MDA-MB-231 breast cancer cells and were seeded into 6-well plates at 4×10^5 cells per well and treated for 48 hours with 925 nM/mL of MKT-077 on MDA-MB-231 cells, 500 nM/mL of MKT-077 on MCF-7 cells, 337.5 nM/mL of MKT-077 on K562 cells, 300 μM/mL of DMA, 200 μM/mL of Omeprazole, 1.6 uM/mL of paclitaxel, 2 mg/mL of cisplatin, or combined treatment with either paclitaxel or cisplatin in combination with each of the three mortalin inhibitors. Apoptosis was determined using the TUNEL detection kit (Nexcelom, MA) and GUAVA easyCyte HT (EMD Millipore Corporation, Temecula, Calif.) system for fluorometric detection. (FIG. 13).
# [2] = tested on: MDA-MB-231 cells; experiment: TUNEL apoptosis assay, MDA-MB-231; settings: 48 hours, MKT-077 925 nM/mL, DMA 300 μM/mL, Omeprazole 200 μM/mL, paclitaxel 1.6 uM/mL, cisplatin 2 mg/mL
# Method: as §1
# [3] = tested on: MDA-MB-231 exosomes; experiment: Western blot of exosomal proteins (Alix, vimentin, mortalin), MDA-MB-231; settings: MDA-MB-231 cells, 48 hr treatment
# Method: (§2) 7-7. Protein analysis by Western blotting. Exosomes were isolated from cell culture supernatants as described above. Protein concentrations were determined by measuring absorbance at 280 nm (Nanodrop 2000). Cultured cells were treated with PEG-SMR-Clu, SMR-CPP peptides, MKT-077, Omeprazole or DMA at 37° C. for 48 hr. To evaluate mortalin, vimentin and exosome expression, Western blot analysis was performed using anti-mortalin (Grp-75), anti-Vimentin and anti-Alix antibodies, respectively (FIG. 12).
# (§3) Exosomes and cell lysates were prepared by incubating 5-10 min at 95° C. in sample buffer. The lysates were subjected to SDS-PAGE under reducing conditions (150 mM DTT) in 4-20% Criterion™ TGX™ precast gels (BioRad, Hercules, Calif.) and then transferred onto a nitrocellulose membrane (Bio-Rad, Hercules, Calif.). Nitrocellulose membranes were blocked with 5% skim milk (MedSupply, Atlanta, Ga.) in TBS containing 0.05% Tween 20 (TBST) for 1 h at room temperature. The membranes were treated with anti-mortalin (Grp-75) mAb or anti-α-tubulin mAb for cell lysates (FIG. 15, Panels A and B) or with anti-Alix and anti-vimentin or anti-mortalin for exosomes (FIG. 12), followed by peroxidase-conjugated goat anti-mouse IgG. Bands were developed with an ECL chemiluminescent substrate (Santa Cruz Biotechnology, Santa Cruz, Calif.) and exposed to an ImageQuant LAS 4000 imaging system (GE Healthcare, Piscataway, N.J. 08854).
# [4] = tested on: MDA-MB-231 breast cancer cells; experiment: Exosome release by acetylcholinesterase (AchE) assay, MDA-MB-231; settings: MDA-MB-231 cells, five-day treatment
# Method: (§4) 1-6. Exosome isolation and purification. Exosomes were isolated from breast cancer cells by differential centrifugation as previously described (Ali SA. et al., 2010). Untreated tumor cells were used as a control. Briefly, the above treated and untreated cell culture supernatants were centrifuged at 400×g for 10 minutes. The supernatants were transferred to a clear tube and centrifuged at 10,000×g for 30 minutes. The supernatants from the second spin were ultracentrifuged at 200,000×g for 2 hours to pellet exosomes. Finally, the exosome pellets were re-suspended with PBS and stored at 4° C. until used for analysis.
# (§5) 1-7. Exosome characterization by acetylcholinesterase (AchE) assay. Purified exosomes were quantitated by measurement of AchE as described (Ellman et al., 1961). Briefly, a 100 mM dithibionitrobenzoic (DTNB) solution was prepared for use as a stock color indicator, and a 28.9 mg/mL acetylthiocholine iodide in PBS solution was prepared as a stock substrate. The stock substrate stock can be stored at −20° C. up to one month, while the color indicator can be stored at 4° C. for two weeks. A working solution was prepared by mixing 10 mL of PBS with 200 μL of Substrate and 500 μl of DTNB. 50 μL of each exosome sample was transferred to 96 well microtitre plates, and a standard curve was prepared using AchE from 0.98 mU/mL to 2000 mU/mL. After 50 μL of standards were added into separate wells, 200 μL of the working solution was added to all wells. After 20 min incubation, AchE activity was measured at 450 nm using a SpectroMax M5 fluorimeter.
# (§6) 7-5. Exosome isolation and purification. Exosomes were isolated from breast cancer cells and leukemia cells using the ExoQuick-TC Exosome Precipitation Kit (System Biosciencences [SBI], Mountain View Calif.) or the miRCURY Exosome Isolation Kit (EXIQON, Woburn, Mass.) according to the manufacturer's instructions. Untreated tumor cells were used as a control. Briefly, treated and untreated cell culture supernatants (10 mL) were centrifuged at 3000×g for 15 minutes. The resulting supernatants were transferred to a clear tube, 2 mL of ExoQuick-TC buffer was added, mixed and incubated overnight at 4° C. Following the incubation, the sample contents were centrifuged at 1500×g for 30 minutes, the supernatants were aspirated off, the pellets were centrifuged at 1500×g for 5 minutes and any further traces of supernatant were removed (SBI). Alternatively, treated and untreated cell culture supernatants were centrifuged at 10,000×g for 5 minutes to remove cell debris, supernatants (10 ml) were transferred into new tubes, and 4 mL of precipitation buffer (EXIQON) was added, and the contents were mixed and incubated at 4° C. overnight. Following the incubation, the sample contents were centrifuged at 10,000×g for 30 minutes (EXIQON). Exosome-containing pellets were re-suspended in PBS and stored at 4° C. or −80° C.
# (§7) 7-6. Exosome characterization by acetylcholinesterase (AchE) assay. Purified exosomes were quantitated by measurement of AchE as previously described (Huang et al., Oncotarget, 2017. 8(7): pp. 11302-11315). Briefly, 100 mM dithibionitrobenzoic (DTNB) was prepared as a stock color indicator, and prepared a stock substrate containing 28.9 mg/mL of acetylthiocholine iodide in PBS. Substrate stock can be stored at −20° C. up to one month; the stock color indicator can be stored at 4° C. for two weeks. A working solution was prepared by mixing 10 mL of PBS with 200 μL of substrate and 500 μl of DTNB. 50 μL of each exosome sample was transferred to a 96 well microtitre plate, and a standard curve for AchE concentrations was prepared using AchE from 0.98 mU/mL to 2000 mU/mL. After 50 μL of standards were added into separate wells, 200 μL of the working solution was added to each well. After a 20 min incubation, AchE activity was measured at 450 nm using a SpectroMax M5 fluorometer (FIG. 11).
# [5] = tested on: K562 exosomes; experiment: Western blot of exosomal proteins (Alix, vimentin, mortalin), K562; settings: K562 cells, 48 hr treatment
# Method: as §2, §3
# [6] = tested on: MCF-7 breast cancer cells; experiment: Exosome release by acetylcholinesterase (AchE) assay, MCF-7; settings: MCF-7 cells, five-day treatment
# Method: as §4, §5, §6, §7
# [7] = tested on: exosomes from MCF-7 cells; experiment: Western blot of exosomal proteins (Alix, vimentin, mortalin), MCF-7; settings: 48 hr treatment, vs negative controls
# Method: as §2, §3
# [8] = tested on: K562 cells; experiment: TUNEL apoptosis assay, K562; settings: 48 hours, MKT-077 337.5 nM/mL, DMA 300 μM/mL, Omeprazole 200 μM/mL, paclitaxel 1.6 uM/mL, cisplatin 2 mg/mL
# Method: as §1
# [9] = tested on: MDA-MB-231 breast cancer cells; experiment: MTT proliferation assay, MDA-MB-231; settings: MDA-MB-231 cells
# Method: (§8) 1-3. Viability and proliferation. Human breast cancer cell lines were seeded into 96-well plates (5000 cells/well) and treated for 24 hours with various concentrations of SMR peptides including PEG-SMRwt-Clu, PEG-SMRwt and PEG-SMRmut to determine IC50 (inhibition concentration). Cell proliferation was determined using the MTT assay (Molecular Devices, Sunnyvale, Calif.). Control experiments were performed with MTT treated cells alone and untreated cells, and on this basis, the incubation times of 24 hr and 48 hr were used for an MTT assay of peptide-treated cells (Stockerta JC. et al., 2012 and Riss TL. et al., 2015).
# (§9) 7-4. Cell proliferation and cytotoxicity assay. Human breast cancer cell lines MCF-7, MDAMB-231, and leukemia K562 cells, and non-tumorigenic MCF-10A cells are seeded into 96-well plates (5000 cells/well) and treated for 24 hours with 0-1120 nM SMRwt-CPP or SMRmut-CPP (FIG. 10). Cell proliferation was determined using the MTT [3-(4,5-dimethylthiazol-2-yl)-2,5-diphenyltetrazolium bromide] dye assay by SpectraMax M5 Fluorescence Plate Reader (Molecular Devices. Sunnyvale, Calif.). Cell viability was estimated by the conversion of yellow MTT by mitochondrial dehydrogenases of living cells to purple formazon (MTT assay). Control experiments were performed with cells treated or untreated with MTT, and on this basis, an incubation time of 24 hours was used for MTT assays of peptide-treated cells (Huang, M. B., et al., Oncotarget, 2017. 8(7): pp. 11302-11315.). Statistical significance of results was determined from three independent experiments including triplet or quadruplet sets in each experiment.
# [10] = tested on: MCF-7 breast cancer cells; experiment: MTT proliferation assay, MCF-7; settings: MCF-7 cells
# Method: as §8, §9
# [11] = 24 hours, MTT, read-out: 50% inhibition of cell growth
# [12] = 24 hours, read-out: SMR at IC50 concentration
Compound,apoptosis (TUNEL) [1] [%],apoptosis (TUNEL) [2] [%],Vimentin expression in exosomes [3],average AChE concentration day 1 to 5 [4] [mU/mL],Alix expression in exosomes [5],Mortalin expression in exosomes [5],Vimentin expression in exosomes [5],average AChE concentration days 1 to 5 [6] [mU/mL],Alix expression in exosomes [7],Mortalin expression in exosomes [7],Vimentin expression in exosomes [7],apoptosis (TUNEL) [8] [%],other results
"COc1ccc2[nH]c([S+]([O-])Cc3ncc(C)c(OC)c3C)nc2c1 (stereo not drawn) [Omeprazole, 5-Methoxy-2-[[(4-methoxy-3,5-dimethyl-2-pyridinyl)methyl]sulfinyl]-1H-benzimidazole]",1.1,3.0,no significant change,25,significantly decreased,significantly decreased,significantly,26,not accompanied by significant reductions,no significant changes,significantly decreased,6.1,Mortalin expression in exosomes [3]: No significant change
"N.N.[Cl][Pt][Cl] [cisplatin, reference compound]",,,,,,,,,,,,,experimentally determined IC50 dosage ([9]; data not shown): 2 mg/mL; experimentally determined IC50 dosage ([10]; data not shown): 3 mg/mL
NXNVGFPVAAVGFPV (SEQ ID NO: 36) [PEG-SMRwt],,,,,,,,,,,,,"IC50 [9, 11]: 420 nM; IC50 [9, 12]: 420 nM; IC50 [10, 11]: 280 nM; IC50 [10, 12]: 280 nM"
"CN(C)c1nc(N)c(C(=O)NC(=N)N)nc1Cl [DMA, 5-(N,N-Dimethyl)amiloride]",11.83,30.43,significantly decreased,37,significantly decreased,significantly decreased,significantly,26,not accompanied by significant reductions,no significant changes,significantly decreased,15.2,
SMRmut-CPP (AGFPVAAAGFPVGRKKRRQRRRPPQ) [SEQ ID NO: 41],,,,,,,,,,,,,"AChE initial increase on day 1 ([4]; day 1, mock 146.52): 141.47 mU/mL; AchE concentration on day 3 ([6]; day 3, mock 69.15): 66.05 mU/mL; AchE concentration, initial increase ([6]; days 1 and/or 2, mock 155.13): 150.06 mU/mL"
"CC(=O)O[C@H]1C(=O)[C@@]2(C)[C@H]([C@H](OC(=O)c3ccccc3)[C@]3(O)C[C@H](OC(=O)[C@H](O)[C@@H](NC(=O)c4ccccc4)c4ccccc4)C(C)=C1C3(C)C)[C@]1(OC(C)=O)CO[C@@H]1C[C@@H]2O [paclitaxel, reference compound]",,,,,,,,,,,,,"IC50 ([9]; Homo sapiens, data not shown, read-out: experimentally determined IC50 dosage): 1600 nM; IC50 ([10]; Homo sapiens, MCF7, data not shown, read-out: experimentally determined IC50 dosage): 1600 nM"
